Experimental data from patent US20100226881A1, “PYRAZOLO[1,5-a]PYRIDINES AND THEIR USE IN CANCER THERAPY” (Auckland Uniservices Limited, priority 2007, published 2010).
Structures can show the parent of a compound that is named as a salt. Where two headings read alike, the source gives them in different places.

Legend:
[1] = target: p110β/p85 (Homo sapiens, UniProt P42338); assay: Inhibition of isolated enzyme, PI 3-kinase p110β/p85; assay type: biochemical; settings: recombinant enzyme, 100 μM ATP, average of two experiments
Chain of p110β/p85 (P42338 whole entry, species assumed): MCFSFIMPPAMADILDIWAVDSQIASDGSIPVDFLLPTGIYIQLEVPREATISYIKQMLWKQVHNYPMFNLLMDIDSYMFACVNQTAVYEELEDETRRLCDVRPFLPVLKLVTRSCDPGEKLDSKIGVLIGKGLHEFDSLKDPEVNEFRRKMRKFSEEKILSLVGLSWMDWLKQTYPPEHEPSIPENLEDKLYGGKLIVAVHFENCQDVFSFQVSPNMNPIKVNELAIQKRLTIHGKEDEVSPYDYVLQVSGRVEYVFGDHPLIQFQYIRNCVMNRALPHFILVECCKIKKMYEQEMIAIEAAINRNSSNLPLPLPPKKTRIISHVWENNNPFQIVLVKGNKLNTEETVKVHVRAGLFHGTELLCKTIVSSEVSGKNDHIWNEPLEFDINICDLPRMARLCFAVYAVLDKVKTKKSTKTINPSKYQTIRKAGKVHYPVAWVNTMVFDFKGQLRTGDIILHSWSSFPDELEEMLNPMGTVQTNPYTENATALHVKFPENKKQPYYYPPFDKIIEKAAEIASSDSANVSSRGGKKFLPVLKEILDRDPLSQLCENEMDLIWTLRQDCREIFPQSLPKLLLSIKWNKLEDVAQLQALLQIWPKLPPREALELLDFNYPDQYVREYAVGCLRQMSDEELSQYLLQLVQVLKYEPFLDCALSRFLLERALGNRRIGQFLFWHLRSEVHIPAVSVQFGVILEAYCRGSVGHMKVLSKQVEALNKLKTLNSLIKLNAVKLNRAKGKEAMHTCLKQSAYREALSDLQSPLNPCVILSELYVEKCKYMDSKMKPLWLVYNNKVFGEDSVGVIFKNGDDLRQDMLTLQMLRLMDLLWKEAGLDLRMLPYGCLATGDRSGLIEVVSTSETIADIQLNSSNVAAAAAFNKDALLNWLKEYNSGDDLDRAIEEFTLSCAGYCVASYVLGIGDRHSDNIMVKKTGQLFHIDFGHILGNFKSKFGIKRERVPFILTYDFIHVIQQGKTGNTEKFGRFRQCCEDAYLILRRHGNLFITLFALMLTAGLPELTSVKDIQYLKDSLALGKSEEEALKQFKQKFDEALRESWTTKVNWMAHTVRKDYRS
Chain of p110β/p85 (P27986 whole entry partner, species assumed): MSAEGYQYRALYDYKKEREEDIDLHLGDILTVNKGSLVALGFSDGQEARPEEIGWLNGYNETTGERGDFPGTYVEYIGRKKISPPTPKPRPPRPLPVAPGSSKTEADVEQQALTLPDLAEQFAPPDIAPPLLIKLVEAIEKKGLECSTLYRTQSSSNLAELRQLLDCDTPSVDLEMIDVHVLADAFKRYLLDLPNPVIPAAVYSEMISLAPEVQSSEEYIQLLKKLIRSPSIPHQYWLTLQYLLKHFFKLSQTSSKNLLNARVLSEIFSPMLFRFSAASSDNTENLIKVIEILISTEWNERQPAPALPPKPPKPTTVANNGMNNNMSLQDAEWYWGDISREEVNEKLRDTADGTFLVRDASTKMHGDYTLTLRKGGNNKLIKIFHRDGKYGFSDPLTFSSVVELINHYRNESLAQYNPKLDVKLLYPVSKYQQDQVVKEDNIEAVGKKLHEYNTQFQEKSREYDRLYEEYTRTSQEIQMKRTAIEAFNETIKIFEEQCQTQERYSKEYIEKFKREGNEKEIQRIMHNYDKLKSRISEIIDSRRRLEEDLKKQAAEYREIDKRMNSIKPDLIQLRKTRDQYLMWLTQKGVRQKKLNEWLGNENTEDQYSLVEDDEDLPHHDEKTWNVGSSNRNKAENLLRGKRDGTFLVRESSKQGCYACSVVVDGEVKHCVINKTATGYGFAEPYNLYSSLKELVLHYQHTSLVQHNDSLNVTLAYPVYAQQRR
Protocol: (§1) Compounds were evaluated for their ability to inhibit the Class I PI 3-kinase enzymes p110δ/p85, p110α/p85 and p110β/p85. Reaction mixtures comprising 0.1 μg of recombinant enzyme, 10 μg of L-α-phosphatidylinositol, the compound (DMSO only or DMSO+compound to a final concentration of 1%), 2× Lipid Kinase Buffer (40 mM Tris-HCl pH 7.4, 200 mM NaCl, 1 mM EDTA) were activated by the addition of an ATP mix (5 mM MgCl2, 100 μM ATP, 0.1 μL [γ^33P]ATP). […] Firstly, 200 μL of chloroform/methanol (1:1) was added, the biphasic reactions mixed and centrifuged briefly, and the inorganic phase was removed and discarded.

[2] = target: p110α/p85 (Homo sapiens, UniProt P42336); assay: Inhibition of isolated enzyme, PI 3-kinase p110α/p85
Chain of p110α/p85 (P42336 whole entry, species assumed): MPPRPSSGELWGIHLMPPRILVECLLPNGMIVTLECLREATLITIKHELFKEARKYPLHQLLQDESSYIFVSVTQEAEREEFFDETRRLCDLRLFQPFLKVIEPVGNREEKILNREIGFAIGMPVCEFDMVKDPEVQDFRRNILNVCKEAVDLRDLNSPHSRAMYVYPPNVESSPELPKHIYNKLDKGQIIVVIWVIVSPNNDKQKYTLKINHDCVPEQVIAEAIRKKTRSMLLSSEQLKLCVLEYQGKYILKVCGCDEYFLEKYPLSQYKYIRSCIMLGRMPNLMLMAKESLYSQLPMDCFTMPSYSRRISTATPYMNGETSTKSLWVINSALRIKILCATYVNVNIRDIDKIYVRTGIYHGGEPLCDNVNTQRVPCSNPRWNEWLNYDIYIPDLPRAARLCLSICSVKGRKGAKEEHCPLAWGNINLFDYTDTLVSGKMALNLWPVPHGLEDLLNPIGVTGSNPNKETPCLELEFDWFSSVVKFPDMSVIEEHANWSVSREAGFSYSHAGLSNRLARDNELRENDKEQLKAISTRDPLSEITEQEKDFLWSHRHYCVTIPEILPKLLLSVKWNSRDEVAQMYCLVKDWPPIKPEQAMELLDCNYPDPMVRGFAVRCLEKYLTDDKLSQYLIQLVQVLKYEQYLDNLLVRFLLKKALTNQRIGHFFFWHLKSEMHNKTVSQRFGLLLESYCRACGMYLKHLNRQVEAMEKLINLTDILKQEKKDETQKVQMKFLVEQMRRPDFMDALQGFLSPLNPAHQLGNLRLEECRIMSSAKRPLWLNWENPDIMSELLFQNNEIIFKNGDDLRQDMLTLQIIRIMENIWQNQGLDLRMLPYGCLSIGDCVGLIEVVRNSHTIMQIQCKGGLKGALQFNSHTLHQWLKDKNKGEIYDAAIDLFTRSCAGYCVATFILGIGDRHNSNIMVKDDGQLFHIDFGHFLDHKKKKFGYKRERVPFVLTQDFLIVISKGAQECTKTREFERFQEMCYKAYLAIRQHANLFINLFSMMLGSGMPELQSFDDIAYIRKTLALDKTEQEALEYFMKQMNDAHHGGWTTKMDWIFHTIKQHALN
Chain of p110α/p85 (P27986 whole entry partner, species assumed): as the sequence (P27986 whole entry partner, species assumed) above

[3] = test system: NZOV9; assay: Cellular growth inhibition (3H-thymidine), NZOV9; assay type: cell-based; settings: Homo sapiens, five days, 3H-thymidine incorporation, maximum 20 μM
Protocol: (§2) The compounds were evaluated against two early passage human cell lines NZB5 and NZOV9, whose development and culture have been described [Marshall et al, Oncol. Res. 2004, 14, 297]. The cells were grown in ITS medium (α-modified minimal essential medium supplemented insulin, transferrin, selenite and 5% fetal bovine serum) and grown on 96-well tissue culture plates under an atmosphere of 5% O2, 5% CO2 and 90% N2. Individual wells contained 500-1000 cells (depending on the growth rate) in a volume of 150 μL. Compounds were added at 10-fold concentration steps to a maximum of 20 μM and plates were incubated for five days, with ^3H-thymidine being added over the last 6 h. Cells were harvested and incorporated radioactivity measured. Duplicate samples were analyzed for each compound dose with multiple control samples. Data were fitted by a least-squares method to an exponential of the form y=y0+ae^−bx, where y is the radioactivity (corrected for background and normalized to 100% of the control) x is the radiation dose, and y0, a and b are variables, and the IC50 value defined as the compound concentration reducing ^3H-thymidine levels by 50%.

[4] = test system: NZB5; assay: Cellular growth inhibition (3H-thymidine), NZB5; assay type: cell-based; settings: Homo sapiens, five days, 3H-thymidine incorporation, maximum 20 μM
Protocol: as §2

[5] = target: p110δ/p85 (Homo sapiens, UniProt O00329); assay: Inhibition of isolated enzyme, PI 3-kinase p110δ/p85; assay type: biochemical; settings: recombinant enzyme, 100 μM ATP, average of two experiments
Chain of p110δ/p85 (O00329 whole entry, species assumed): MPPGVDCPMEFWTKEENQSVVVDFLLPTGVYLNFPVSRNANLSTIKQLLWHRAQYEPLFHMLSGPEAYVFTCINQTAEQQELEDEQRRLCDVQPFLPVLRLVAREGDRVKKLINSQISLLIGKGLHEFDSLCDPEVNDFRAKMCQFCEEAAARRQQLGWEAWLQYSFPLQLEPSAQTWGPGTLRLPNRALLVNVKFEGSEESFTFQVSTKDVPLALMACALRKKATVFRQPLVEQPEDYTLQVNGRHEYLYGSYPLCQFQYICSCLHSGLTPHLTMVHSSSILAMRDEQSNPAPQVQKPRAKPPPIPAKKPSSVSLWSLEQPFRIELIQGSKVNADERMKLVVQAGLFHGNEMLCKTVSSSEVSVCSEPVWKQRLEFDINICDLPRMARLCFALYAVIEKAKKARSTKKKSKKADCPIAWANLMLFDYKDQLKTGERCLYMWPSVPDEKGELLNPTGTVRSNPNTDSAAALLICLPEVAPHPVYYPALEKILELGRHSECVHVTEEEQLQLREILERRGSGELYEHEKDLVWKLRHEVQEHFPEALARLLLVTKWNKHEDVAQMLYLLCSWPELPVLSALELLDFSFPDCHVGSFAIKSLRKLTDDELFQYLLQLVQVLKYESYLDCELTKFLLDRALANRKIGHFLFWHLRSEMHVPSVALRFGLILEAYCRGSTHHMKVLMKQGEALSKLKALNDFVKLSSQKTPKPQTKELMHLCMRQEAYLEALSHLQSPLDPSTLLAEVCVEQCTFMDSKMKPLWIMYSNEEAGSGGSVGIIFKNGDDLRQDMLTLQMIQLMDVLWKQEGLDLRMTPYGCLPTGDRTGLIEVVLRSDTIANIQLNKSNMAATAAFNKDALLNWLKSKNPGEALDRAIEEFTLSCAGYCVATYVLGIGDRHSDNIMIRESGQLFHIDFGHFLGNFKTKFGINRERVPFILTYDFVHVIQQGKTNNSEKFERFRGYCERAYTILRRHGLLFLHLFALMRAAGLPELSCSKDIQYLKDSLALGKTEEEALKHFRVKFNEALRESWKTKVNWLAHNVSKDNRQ
Chain of p110δ/p85 (P27986 whole entry partner, species assumed): as the sequence (P27986 whole entry partner, species assumed) above
Protocol: as §1

[6] = read-out: IC50 (nM) p110α, recombinant enzyme, 100 μM ATP, average of two experiments

| SMILES | IC50 [1] [nM] | IC50 [2, 6] [nM] | IC50 [5] [nM] | IC50 [2] [nM] | IC50 [3] [µM] | IC50 [4] [µM] |
| --- | --- | --- | --- | --- | --- | --- |
| CN(C)CCN(C)c1ccc(C#N)cc1S(=O)(=O)N(C)N=Cc1cnn2ccc(C#N)cc12 [E77, 5-Cyano-N′-((5-cyanopyrazolo[1,5-a]pyridin-3-yl)methylene)-2-((2-(dimethylamino)ethyl)(methyl)amino)-N-methylbenzenesulfonohydrazide hydro-chloride] | 360 | 10 | 380 | – | 0.05 | 0.06 |
| O=[N+]([O-])c1cccc(S(=O)(=O)c2nc(-c3cnn4ccc(Br)cc34)cs2)c1 [E90, 4-(5-Bromopyrazolo[1,5-a]pyridin-3-yl)-2-(3-nitrophenylsulfonyl)thiazole] | 5500 | 790 | 250 | – | 0.61 | 0.18 |
| Cc1ccc([N+](=O)[O-])cc1S(=O)(=O)n1ccc(-c2cnn3ccc(Br)cc23)n1 [E88, 5-bromo-3-(1-(2-methyl-5-nitrophenylsulfonyl)-1H-pyrazol-3-yl)pyrazolo[1,5-a]pyridine] | > 1000 | 250 | 1450 | – | 0.07 | 0.08 |
| CN(N=Cc1cnn2ccc(Br)cc12)S(=O)(=O)c1cc([N+](=O)[O-])ccc1OCCN1CCOCC1 [E74, N′-((5-Bromopyrazolo[1,5-a]pyridin-3-yl)methylene)-N-methyl-2-(2-morpholinoethoxy)-5-nitrobenzenesulfonohydrazide hydrochloride] | 2900 | 32 | 350 | – | 0.55 | 0.27 |
| CN(N=Cc1cnn2ccc(C#N)cc12)S(=O)(=O)c1cc([N+](=O)[O-])ccc1Cl [E34, 2-Chloro-N′-((5-cyanopyrazolo[1,5-a]pyridin-3-yl)methylene)-N-methyl-5-nitrobenzenesulfonohydrazide] | – | – | – | – | 0.35 | 0.88 |
| Cc1ccc(C#N)cc1S(=O)(=O)N(CCO)N=Cc1cnn2ccc(C#N)cc12 [E40, 5-Cyano-N′-((5-cyanopyrazolo[1,5-a]pyridin-3-yl)methylene)-N-(2-hydroxyethyl)-2-methylbenzenesulfonohydrazide] | 23 | 3 | 25 | – | 0.62 | 3.2 |
| Cc1ccn2nc(C)c(C=NN(C)S(=O)(=O)c3cc([N+](=O)[O-])ccc3C)c2c1 [E4, N′-((2,5-Dimethylpyrazolo[1,5-a]pyridin-3-yl)methylene)-N,2-dimethyl-5-nitrobenzenesulfonohydrazide] | > 1000 | 870 | > 1000 | – | 20 | 15 |
| Cc1ccc([N+](=O)[O-])cc1S(=O)(=O)N(C)N=Cc1cnn2ccc(I)cc12 [E15, N′-((5-Iodopyrazolo[1,5-a]pyridin-3-yl)methylene)-N,2-dimethyl-5-nitro-benzenesulfonohydrazide] | 720 | – | 240 | 23 | 0.05 | 0.04 |
| Cc1ccc([N+](=O)[O-])cc1Sc1nnc(-c2cnn3ccc(Br)cc23)o1 [E91, 2-(5-Bromopyrazolo[1,5-a]pyridin-3-yl)-5-(2-methyl-5-nitrophenylthio)-1,3,4-oxadiazole] | > 1000 | – | 120 | 84 | 2.8 | 0.73 |

Now from value to compound, other results behind:

| IC50 [1] [nM] | IC50 [2, 6] [nM] | IC50 [5] [nM] | IC50 [2] [nM] | SMILES | IC50 [3] [µM] | IC50 [4] [µM] |
| --- | --- | --- | --- | --- | --- | --- |
| > 1000 | 330 | > 1000 | – | Cc1ccc([N+](=O)[O-])cc1S(=O)(=O)N(C)N=Cc1cnn2ccc(C3CC3)cc12 [E17, N′-((5-cyclopropylpyrazolo[1,5-a]pyridin-3-yl)methylene)-N,2-dimethyl-5-nitrobenzenesulfonohydrazide] | 0.67 | 0.74 |
| 35 | 3.4 | 210 | – | CN(C)c1ccc([N+](=O)[O-])cc1S(=O)(=O)N(C)N=Cc1cnn2ccc(Br)cc12 [E73, N′-((5-Bromopyrazolo[1,5-a]pyridin-3-yl)methylene)-2-(dimethylamino)-N-methyl-5-nitrobenzenesulfonohydrazide] | 0.31 | 0.11 |
| > 1000 | 260 | 790 | – | COC(=O)c1ccn2ncc(C=NN(C)S(=O)(=O)c3cc([N+](=O)[O-])ccc3C)c2c1 [E6, Methyl 3-((2-methyl-2-(2-methyl-5-nitrophenylsulfonyl)hydrazono)methyl)pyrazolo[1,5-a]pyridine-5-carboxylate] | 1.5 | 1.8 |
| 5600 | – | 200 | 5.8 | CN(N=Cc1cnn2ccc(C#N)cc12)S(=O)(=O)c1cc([N+](=O)[O-])ccc1OCc1ccccn1 [E71, N′-((5-Cyanopyrazolo[1,5-a]pyridin-3-yl)methylene)-N-methyl-5-nitro-2-(pyridin-2-ylmethoxy)benzenesulfonohydrazide hydrochloride] | 0.66 | 1.3 |
| 300 | 1.8 | 40 | – | CC(C)c1ccc([N+](=O)[O-])cc1S(=O)(=O)N(C)N=Cc1cnn2ccc(C#N)cc12 [E33, N′-((5-Cyanopyrazolo[1,5-a]pyridin-3-yl)methylene)-2-isopropyl-N-methyl-5-nitrobenzenesulfonohydrazide] | 0.26 | 0.19 |
| > 1000 | 55 | 320 | – | CN(N=Cc1cnn2ccc(C#N)cc12)S(=O)(=O)c1cc([N+](=O)[O-])ccc1NCCc1c[nH]cn1 [E63, 2-(2-(1H-Imidazol-4-yl)-ethylamino)-N′-((5-cyanopyrazolo[1,5-a]pyridin-3-yl)methylene)-N-methyl-5-nitrobenzenesulfonohydrazide hydrochloride] | 0.61 | 0.82 |
| > 1000 | 230 | > 1000 | – | COc1ccn2ncc(C=NN(C)S(=O)(=O)c3cc([N+](=O)[O-])ccc3C)c2c1 [E9, N′-((5-Methoxypyrazolo[1,5-a]pyridin-3-yl)methylene)-N,2-dimethyl-5-nitrobenzenesulfonohydrazide] | 0.52 | 0.94 |
| 200 | 30 | 130 | – | Cc1ccc([N+](=O)[O-])cc1S(=O)(=O)N(CCN(C)C)N=Cc1cnn2ccc(C#N)cc12 [E46, N′-((5-Cyanopyrazolo[1,5-a]pyridin-3-yl)methylene)-N-(2-(dimethylamino)ethyl)-2-methyl-5-nitrobenzenesulfonohydrazide] | 0.4 | 0.37 |
| 230 | 4.5 | 10 | – | Cc1ccc([N+](=O)[O-])cc1S(=O)(=O)N(CCN1CCOCC1)N=Cc1cnn2ccc(C#N)cc12 [E47, N′-((5-Cyanopyrazolo[1,5-a]pyridin-3-yl)methylene)-2-methyl-N-(2-morpholinoethyl)-5-nitrobenzenesulfonohydrazide] | 0.55 | 0.51 |
| 72 | 21 | 19 | – | CN(N=Cc1cnn2ccc(C#N)cc12)C(=O)c1cccc([N+](=O)[O-])c1 [E82, N′-((5-Cyanopyrazolo[1,5-a]pyridin-3-yl)methylene)-N-methyl-3-nitro-benzohydrazide] | 6 | 1.8 |
| 580 | 9.6 | 440 | – | CN(N=Cc1cnn2ccc(C#N)cc12)S(=O)(=O)c1cc([N+](=O)[O-])ccc1NCc1cccnc1 [E65, N′-((5-Cyanopyrazolo[1,5-a]pyridin-3-yl)methylene)-N-methyl-5-nitro-2-(pyridin-3-ylmethylamino)benzenesulfonohydrazide hydrochloride] | 0.68 | 1.1 |
| > 1000 | 110 | 640 | – | Cc1ccn2ncc(C=NN(C)S(=O)(=O)c3cc([N+](=O)[O-])ccc3C)c2c1 [E2, N,2-Dimethyl-N′-((5-methylpyrazolo[1,5-a]pyridin-3-yl)methylene)-5-nitro-benzenesulfonohydrazide] | 0.07 | 0.05 |
| – | 190 | 3400 | – | Cc1ccc([N+](=O)[O-])cc1S(=O)(=O)N(C)N=Cc1cnn2ccccc12 [E1, N,2-Dimethyl-5-nitro-N′-(pyrazolo[1,5-a]pyridin-3-ylmethylene)benzene-sulfonohydrazide] | 0.66 | 0.47 |
